Experimental data reported in patent US8722849B2, “Polypeptides” (Novo Nordisk A/S, priority 2011, dated 2014).
≈ marks a conversion by molar mass, not a printed value. Where two headings read alike, the source gives them in different places. Starred links: 1 amine or outer side, 2 acyl side, 3 side chain; linkers in the order of their positions; H or OH if unused. Positions of bridges follow the written chain, without caps; N, C: chain ends. Residues, ends and D or L forms follow the SMILES beside them. *: point of attachment. C20 diacid = O=C(O)CCCCCCCCCCCCCCCCCCC(=O)*; γGlu = O=C(O)[C@H](CCC(=O)[*:2])N[*:1]

Tests used:
[1] = target: T1, human amylin receptor (amylin 3(a) receptor: human calcitonin receptor + RAMP-3) (Homo sapiens, UniProt O60896+P30988); experiment: Assay (II)a functional CRE-luciferase assay, human amylin receptor; type: cell-based; conditions: Table 2; BHK amylin 3(a)-receptor/CRE-luc cells
T1 construct: expressed in transfected cells; host or cells: BHK570
T1 sequence (P30988 25-474): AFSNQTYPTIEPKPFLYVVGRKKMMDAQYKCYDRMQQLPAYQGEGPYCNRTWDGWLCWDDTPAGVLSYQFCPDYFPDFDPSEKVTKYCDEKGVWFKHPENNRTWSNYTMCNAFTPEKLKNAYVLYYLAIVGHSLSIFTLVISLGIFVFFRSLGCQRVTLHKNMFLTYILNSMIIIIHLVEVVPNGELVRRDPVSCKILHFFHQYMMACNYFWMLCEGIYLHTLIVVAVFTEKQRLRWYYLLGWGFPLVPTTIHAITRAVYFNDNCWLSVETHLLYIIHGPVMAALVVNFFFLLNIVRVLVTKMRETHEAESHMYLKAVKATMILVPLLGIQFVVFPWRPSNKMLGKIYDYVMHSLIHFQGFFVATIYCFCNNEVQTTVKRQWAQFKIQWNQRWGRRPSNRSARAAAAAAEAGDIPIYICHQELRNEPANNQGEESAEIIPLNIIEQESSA
T1 sequence (O60896 24-148 partner): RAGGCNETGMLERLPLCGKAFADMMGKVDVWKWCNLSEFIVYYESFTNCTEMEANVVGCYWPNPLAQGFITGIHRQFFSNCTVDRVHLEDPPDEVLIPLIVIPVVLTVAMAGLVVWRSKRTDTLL

[2] = target: T2, human calcitonin receptor (Homo sapiens, UniProt P30988); experiment: Assay (II)a functional CRE-luciferase assay, human calcitonin receptor; type: cell-based; conditions: Table 7; human calcitonin (CTa) receptor
T2 construct: expressed in transfected cells; host or cells: BHK570
T2 sequence (P30988 25-474): T1 sequence (P30988 25-474)

[3] = Assay (III) ThT fibrillation assay for physical stability; type: physicochemical; conditions: ThT fibrillation assay
How it was run: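 Freshly prepared formulations, pH-adjusted, with 1 μM ThT; four or eight replicates incubated at 37 °C under 960 rpm orbital shaking. Fluorescence (ex 444/em 485 nm) read every 20 min; […]. Peptide concentration measured by RP-HPLC before and after the run.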

[4] = Assay (IV) determination of solubility; type: physicochemical
How it was run: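 Polypeptide in water (~500 nmol/ml stock) was mixed 1:1 with 100 mM buffers from pH 3.0 to 8.0 (glycylglycine pH 3.0–5.0; bistrispropane pH 6.0–8.0). After 18 hours at room temperature, samples were centrifuged and the polypeptide remaining in solution was quantified by HPLC.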

[5] = bistrispropane buffer, pH 6, pH 6.0, read-out: Solubility pH 6.0
[6] = bistrispropane buffer, pH 6.5, pH 6.5, read-out: Solubility pH 6.5
[7] = bistrispropane buffer, pH 7, pH 7.0, 18 hours at room temperature, Table 3, read-out: Solubility pH 7.0
[8] = bistrispropane buffer, pH 7, pH 7.0, read-out: Solubility pH 7.0
[9] = bistrispropane buffer, pH 7.5, pH 7.5, read-out: Solubility pH 7.5
[10] = bistrispropane buffer, pH 8, pH 8.0, read-out: Solubility pH 8.0
[11] = glycylglycine buffer, pH 3, pH 3.0, read-out: Solubility pH 3.0
[12] = glycylglycine buffer, pH 4, pH 4.0, 18 hours at room temperature, Table 2, read-out: Solubility pH 4.0
[13] = glycylglycine buffer, pH 4, pH 4.0, read-out: Solubility pH 4.0
[14] = glycylglycine buffer, pH 5, pH 5.0, read-out: Solubility pH 5.0

EC50 [1] | EC50 [2] | ThT pH 4.0 lag time (h) [3] | solubility at 18 h [4, 5] | solubility at 18 h [4, 6] | solubility at 18 h [4, 7] | solubility at 18 h [4, 8] | solubility at 18 h [4, 9] | solubility at 18 h [4, 10] | solubility at 18 h [4, 11] | solubility at 18 h [4, 12] | solubility at 18 h [4, 13] | solubility at 18 h [4, 14] | ThT pH 4.0 lag time [3] | SMILES
0.0625 nM | 0.0705 nM | 9.7 h | > 200 µM | > 200 µM | > 200 µM | > 200 µM | > 200 µM | > 200 µM | > 200 µM | > 200 µM | > 200 µM | > 200 µM |  | CC[C@H](C)[C@H](NC(=O)[C@@H]1CCCN1C(=O)CNC(=O)[C@H](Cc1ccccc1)NC(=O)[C@H](CC(N)=O)NC(=O)[C@H](CC(N)=O)NC(=O)[C@H](CO)NC(=O)[C@H](CO)NC(=O)[C@H](Cc1c[nH]cn1)NC(=O)[C@H](Cc1c[nH]cn1)NC(=O)[C@H](CC(C)C)NC(=O)[C@H](Cc1ccccc1)NC(=O)[C@H](CCC(=O)O)NC(=O)[C@H](C)NC(=O)[C@H](CC(C)C)NC(=O)[C@H](CCCNC(=N)N)NC(=O)[C@H](CCC(N)=O)NC(=O)[C@@H](NC(=O)[C@H](C)NC(=O)[C@@H]1CSSC[C@H](NC(=O)[C@H](CO)NC(=O)CC[C@H](NC(=O)CCCCCCCCCCCCCCCCCCC(=O)O)C(=O)O)C(=O)N[C@@H](CC(N)=O)C(=O)N[C@@H]([C@@H](C)O)C(=O)N[C@@H](C)C(=O)N[C@@H]([C@@H](C)O)C(=O)N1)[C@@H](C)O)C(=O)N[C@@H](CC(C)C)C(=O)N1CCC[C@H]1C(=O)N1CCC[C@H]1C(=O)N[C@H](C(=O)N[C@@H](CC(N)=O)C(=O)N[C@H](C(=O)NCC(=O)N[C@@H](CO)C(=O)N[C@@H](CC(N)=O)C(=O)N[C@H](C(=O)N1CCC[C@H]1C(N)=O)[C@@H](C)O)C(C)C)[C@@H](C)O [Example 106, N-alpha-[(S)-4-Carboxy-4-(19-carboxynonadecanoylamino)butyryl]-[Ser1,Glu14,His17,Pro37]-pramlintide] ({C20 diacid-γGlu}-SCNTATCATQRLAEFLHHSSNNFGPILPPTNVGSNTP-NH2; disulfide 2-7 (inferred); C-terminus assumed)
0.119 nM | 0.184 nM | 2.7 h | > 200 µM | > 200 µM | > 200 µM | > 200 µM | > 200 µM | > 200 µM | > 200 µM | > 200 µM | > 200 µM | > 200 µM |  | CC[C@H](C)[C@H](NC(=O)[C@@H]1CCCN1C(=O)CNC(=O)[C@H](Cc1ccccc1)NC(=O)[C@H](CC(N)=O)NC(=O)[C@H](CC(N)=O)NC(=O)[C@H](CO)NC(=O)[C@H](CO)NC(=O)[C@H](Cc1c[nH]cn1)NC(=O)[C@H](Cc1c[nH]cn1)NC(=O)[C@H](CC(C)C)NC(=O)[C@H](Cc1ccccc1)NC(=O)[C@H](CCC(=O)O)NC(=O)[C@H](C)NC(=O)[C@H](CC(C)C)NC(=O)[C@H](CCCNC(=N)N)NC(=O)[C@H](CCC(N)=O)NC(=O)[C@@H](NC(=O)[C@H](C)NC(=O)[C@@H]1CSSC[C@H](NC(=O)[C@H](CCCNC(=N)N)NC(=O)[C@H](CCC(=O)O)NC(=O)CC[C@H](NC(=O)CCCCCCCCCCCCCCCCCCC(=O)O)C(=O)O)C(=O)N[C@@H](CC(N)=O)C(=O)N[C@@H]([C@@H](C)O)C(=O)N[C@@H](C)C(=O)N[C@@H]([C@@H](C)O)C(=O)N1)[C@@H](C)O)C(=O)N[C@@H](CC(C)C)C(=O)N1CCC[C@H]1C(=O)N1CCC[C@H]1C(=O)N[C@H](C(=O)N[C@@H](CC(N)=O)C(=O)N[C@H](C(=O)NCC(=O)N[C@@H](CO)C(=O)N[C@@H](CC(N)=O)C(=O)N[C@H](C(=O)N[C@@H](Cc1ccc(O)cc1)C(N)=O)[C@@H](C)O)C(C)C)[C@@H](C)O [Example 25, N-alpha-[(S)-4-Carboxy-4-(19-carboxynonadecanoylamino)butyryl]-Glu-[Arg1,Glu14,His17]-pramlintide] ({C20 diacid-γGlu}-ERCNTATCATQRLAEFLHHSSNNFGPILPPTNVGSNTY-NH2; disulfide 3-8 (inferred))
0.0495 nM | 0.0505 nM | 3.1 h | > 200 µM | 198 µM (≈ 879 µg/mL) | > 200 µM | > 200 µM | > 200 µM | > 200 µM | > 200 µM | > 200 µM | > 200 µM | > 200 µM |  | CC[C@H](C)[C@H](NC(=O)[C@@H]1CCCN1C(=O)CNC(=O)[C@H](Cc1ccccc1)NC(=O)[C@H](CC(N)=O)NC(=O)[C@H](CC(N)=O)NC(=O)[C@H](CO)NC(=O)[C@H](CO)NC(=O)[C@H](Cc1c[nH]cn1)NC(=O)[C@@H](NC(=O)[C@H](CC(C)C)NC(=O)[C@H](Cc1ccccc1)NC(=O)[C@H](CCC(=O)O)NC(=O)[C@H](C)NC(=O)[C@H](CC(C)C)NC(=O)[C@H](CCCNC(=N)N)NC(=O)[C@H](CCC(N)=O)NC(=O)[C@@H](NC(=O)[C@H](C)NC(=O)[C@@H]1CSSC[C@H](NC(=O)[C@H](CCCNC(=N)N)NC(=O)CNC(=O)CC[C@H](NC(=O)CCCCCCCCCCCCCCCCCCC(=O)O)C(=O)O)C(=O)N[C@@H](CC(N)=O)C(=O)N[C@@H]([C@@H](C)O)C(=O)N[C@@H](C)C(=O)N[C@@H]([C@@H](C)O)C(=O)N1)[C@@H](C)O)C(C)C)C(=O)N[C@@H](CC(C)C)C(=O)N1CCC[C@H]1C(=O)N1CCC[C@H]1C(=O)N[C@H](C(=O)N[C@@H](CC(N)=O)C(=O)N[C@H](C(=O)NCC(=O)N[C@@H](CO)C(=O)N[C@@H](CC(N)=O)C(=O)N[C@H](C(=O)N1CCC[C@H]1C(N)=O)[C@@H](C)O)C(C)C)[C@@H](C)O [Example 102, N-alpha-[(S)-4-Carboxy-4-(19-carboxynonadecanoylamino)butyryl]-Gly-[Arg1,Glu14,Pro37]-pramlintide] ({C20 diacid-γGlu}-GRCNTATCATQRLAEFLVHSSNNFGPILPPTNVGSNTP-NH2; disulfide 3-8 (inferred); C-terminus assumed)
0.0675 nM | 0.0895 nM | 26 h | > 200 µM | 28 µM (≈ 128 µg/mL) |  | 9 µM (≈ 41.1 µg/mL) | 30 µM (≈ 137 µg/mL) | 95 µM (≈ 434 µg/mL) | > 200 µM | > 200 µM | > 200 µM | > 200 µM | 26 h | CC[C@H](C)[C@H](NC(=O)[C@@H]1CCCN1C(=O)CNC(=O)[C@H](Cc1ccccc1)NC(=O)[C@H](CC(N)=O)NC(=O)[C@H](CC(N)=O)NC(=O)[C@H](CO)NC(=O)[C@H](CO)NC(=O)[C@H](Cc1c[nH]cn1)NC(=O)[C@H](Cc1c[nH]cn1)NC(=O)[C@H](CC(C)C)NC(=O)[C@H](Cc1ccccc1)NC(=O)[C@H](CCC(=O)O)NC(=O)[C@H](C)NC(=O)[C@H](CC(C)C)NC(=O)[C@H](CCCNC(=N)N)NC(=O)[C@H](CCC(N)=O)NC(=O)[C@@H](NC(=O)[C@H](C)NC(=O)[C@@H]1CSSC[C@H](NC(=O)[C@H](CCCNC(=N)N)NC(=O)CNC(=O)CC[C@H](NC(=O)CCCCCCCCCCCCCCCCCCC(=O)O)C(=O)O)C(=O)N[C@@H](CC(N)=O)C(=O)N[C@@H]([C@@H](C)O)C(=O)N[C@@H](C)C(=O)N[C@@H]([C@@H](C)O)C(=O)N1)[C@@H](C)O)C(=O)N[C@@H](CC(C)C)C(=O)N1CCC[C@H]1C(=O)N1CCC[C@H]1C(=O)N[C@H](C(=O)N[C@@H](CC(N)=O)C(=O)N[C@H](C(=O)NCC(=O)N[C@@H](CO)C(=O)N[C@@H](Cc1c[nH]cn1)C(=O)N[C@H](C(=O)N[C@@H](Cc1ccc(O)cc1)C(N)=O)[C@@H](C)O)C(C)C)[C@@H](C)O [Example 100, N-alpha-[(S)-4-Carboxy-4-(19-carboxynonadecanoylamino)butyryl]-Gly-[Arg1,Glu14,His17,His35]-pramlintide] ({C20 diacid-γGlu}-GRCNTATCATQRLAEFLHHSSNNFGPILPPTNVGSHTY-NH2; disulfide 3-8 (inferred))
